Measured values published in patent publication US20020137929A1, “1 - (3-heterocyclylphenyl) isothiourea, -isourea, -guanidine and -amidine herbicidal agents” (Intellectual Property Department, BASF Aktiengesellschaft, priority 1998, published 2002).

Key:
AMBEL (Ragweed, Common) = test: Postemergence herbicidal evaluation; assay type: in vivo, Ambrosia artemisifolia; conditions: postemergence
Summary of the method: (§1)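 Scores (0–9) reflect plant stand, vigor, malformation, size, chlorosis and general appearance relative to control, read 4 to 5 weeks after treatment and averaged where tests were repeated. Application: about 0.0156–0.500 kg/ha sprayed at 40 psi onto two-week seedlings.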

ECHCG (Barnyardgrass) = test: Postemergence herbicidal evaluation; assay type: in vivo, Echinochloa crus-galli; conditions: postemergence
Summary of the method: as §1

[1] = tested on: CHEAL (Lambsquarters, Common); test: Postemergence herbicidal evaluation; assay type: in vivo, Chenopodium album; conditions: postemergence
Summary of the method: as §1

ORYSAT (Rice, Tebonnet) = test: Postemergence herbicidal evaluation; assay type: in vivo, Oryza sativa, (L.) Tebonnet; conditions: postemergence
Summary of the method: as §1

CYPIR (Rice Flatsedge) = test: Preemergence weed control under flooded paddy conditions; assay type: in vivo, Cyperus iria; conditions: 0.2500 kg/ha, rated 3-4 weeks after treatment
Summary of the method: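 Flooded-pot preemergence screen with silt loam and seeds in the upper 0.5 cm. Dose about 0.0313 to 0.500 kg/ha, delivered into flood water; visual 0-9 score after 3 to 4 weeks.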

ZEAMX (Corn, Field) = test: Preemergence herbicidal evaluation; assay type: in vivo, Zea mays; conditions: rated 4-5 weeks after treatment, rating scale 0-9
Summary of the method: (§2)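 Seeds were mixed with potting soil and planted on about one inch of soil, then sprayed with test compound in aqueous acetone at about 0.0156 to 0.500 kg per hectare. Plants grew under standard greenhouse care and were visually rated 0-9 against untreated controls 4-5 weeks post-treatment.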

CASOB (Sicklepod) [2] = test: Postemergence herbicidal evaluation; assay type: in vivo, Cassia obtusifolia; conditions: postemergence
Summary of the method: as §1

CYPSE (Flatsedge) = test: Preemergence weed control under flooded paddy conditions; assay type: in vivo, Cyperus serotinus; conditions: 0.2500 kg/ha, rated 3-4 weeks after treatment
Summary of the method: (§3)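 Silt loam, seeds in top 0.5 cm; flood held 1.5-3 cm; test cpd as acetone/water 50/50 into flood water, ~0.0313-0.500 kg/ha a.i.; greenhouse 3-4 wk; visual 0-9 score vs control.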

GALAP (Galium) [3] = test: Postemergence herbicidal evaluation; assay type: in vivo, Galium aparine; conditions: postemergence
Summary of the method: as §1

[4] = tested on: GLXMAW (Soybean, Williams); test: Postemergence herbicidal evaluation; assay type: in vivo, Glycine max, (L.) Merr. cv Williams; conditions: postemergence
Summary of the method: as §1

CASOB (Sicklepod) [5] = test: Preemergence herbicidal evaluation; assay type: in vivo, Cassia obtusifolia; conditions: rated 4-5 weeks after treatment, rating scale 0-9
Summary of the method: as §2

GALAP (Galium) [6] = test: Preemergence herbicidal evaluation; assay type: in vivo, Galium aparine; conditions: rated 4-5 weeks after treatment, rating scale 0-9
Summary of the method: as §2

[7] = tested on: SAGPY (Arrowhead (Pygmaea)); test: Preemergence weed control under flooded paddy conditions; assay type: in vivo, Sagittaria pygmaea; conditions: 0.2500 kg/ha, rated 3-4 weeks after treatment
Summary of the method: as §3

SETVI (Foxtail, Green) = test: Postemergence herbicidal evaluation; assay type: in vivo, Setaria viridis; conditions: postemergence
Summary of the method: as §1

Compound: CCOC(=O)CN1C(=O)C(COC)SC1=Nc1cc(-n2c(=O)cc(C(F)(F)F)n(C)c2=O)c(F)cc1Cl (centres unmarked) [Compound 156, Ethyl 2-{{2-chloro-5-[3,6-dihydro-3-methyl-2,6-dioxo-4-(trifluoromethyl)-1(2H)-pyrimidinyl]-4-fluorophenyl}imino}-5-(methoxymethyl)-4-oxo-3-thiazolidine-acetate]
- Herbicidal rating AMBEL (AMBEL (Ragweed, Common); rate 0.0156 kg/ha): 7.0
- Herbicidal rating AMBEL (AMBEL (Ragweed, Common); rate 0.0313 kg/ha): 7.0
- Herbicidal rating AMBEL (AMBEL (Ragweed, Common); rate 0.0625 kg/ha): 9.0
- Herbicidal rating ECHCG (ECHCG (Barnyardgrass); rate 0.0156 kg/ha): 0.0
- Herbicidal rating ECHCG (ECHCG (Barnyardgrass); rate 0.0313 kg/ha): 0.0
- Herbicidal rating ECHCG (ECHCG (Barnyardgrass); rate 0.0625 kg/ha): 0.0
- Herbicidal rating CHEAL ([1]; rate 0.0156 kg/ha): 9.0
- Herbicidal rating CHEAL ([1]; rate 0.0313 kg/ha): 9.0
- Herbicidal rating CHEAL ([1]; rate 0.0625 kg/ha): 9.0
- Herbicidal rating ORYSAT (ORYSAT (Rice, Tebonnet); rate 0.0156 kg/ha): 0.5
- Herbicidal rating ORYSAT (ORYSAT (Rice, Tebonnet); rate 0.0313 kg/ha): 0.5
- Herbicidal rating ORYSAT (ORYSAT (Rice, Tebonnet); rate 0.0625 kg/ha): 2.0
- herbicidal effect rating, CYPIR (CYPIR (Rice Flatsedge)): 0.0
- Preemergence herbicidal rating ZEAMX (ZEAMX (Corn, Field); rate 0.0313 kg/ha): 0.0
- Preemergence herbicidal rating ZEAMX (ZEAMX (Corn, Field); rate 0.0625 kg/ha): 1.0
- Preemergence herbicidal rating ZEAMX (ZEAMX (Corn, Field); rate 0.1250 kg/ha): 2.0
- Preemergence herbicidal rating ZEAMX (ZEAMX (Corn, Field); rate 0.2500 kg/ha): 5.0
- Herbicidal rating CASOB (CASOB (Sicklepod) [2]; rate 0.0156 kg/ha): 0.0
- Herbicidal rating CASOB (CASOB (Sicklepod) [2]; rate 0.0313 kg/ha): 0.0
- Herbicidal rating CASOB (CASOB (Sicklepod) [2]; rate 0.0625 kg/ha): 1.0
- herbicidal effect rating, CYPSE (CYPSE (Flatsedge)): 0.0
- Herbicidal rating GALAP (GALAP (Galium) [3]; rate 0.0156 kg/ha): 0.0
- Herbicidal rating GALAP (GALAP (Galium) [3]; rate 0.0313 kg/ha): 0.0
- Herbicidal rating GALAP (GALAP (Galium) [3]; rate 0.0625 kg/ha): 3.0
- Herbicidal rating GLXMAW ([4]; rate 0.0156 kg/ha): 5.5
- Herbicidal rating GLXMAW ([4]; rate 0.0313 kg/ha): 4.0
- Herbicidal rating GLXMAW ([4]; rate 0.0625 kg/ha): 5.5
- Preemergence herbicidal rating CASOB (CASOB (Sicklepod) [5]; rate 0.0313 kg/ha): 0.0
- Preemergence herbicidal rating CASOB (CASOB (Sicklepod) [5]; rate 0.0625 kg/ha): 0.0
- Preemergence herbicidal rating CASOB (CASOB (Sicklepod) [5]; rate 0.2500 kg/ha): 0.0
- Preemergence herbicidal rating GALAP (GALAP (Galium) [6]; rate 0.0313 kg/ha): 0.0
- Preemergence herbicidal rating GALAP (GALAP (Galium) [6]; rate 0.0625 kg/ha): 4.0
- Preemergence herbicidal rating GALAP (GALAP (Galium) [6]; rate 0.1250 kg/ha): 4.0
- Preemergence herbicidal rating GALAP (GALAP (Galium) [6]; rate 0.2500 kg/ha): 9.0
- herbicidal effect rating, SAGPY [7]: 0.0
- Herbicidal rating SETVI (SETVI (Foxtail, Green); rate 0.0156 kg/ha): 0.0
- Herbicidal rating SETVI (SETVI (Foxtail, Green); rate 0.0313 kg/ha): 0.0
- Herbicidal rating SETVI (SETVI (Foxtail, Green); rate 0.0625 kg/ha): 5.0
